Where a SMILES comes first, the peptide text is derived from it.
Tests used:
Format in all cases: functional
Oryctolagus cuniculus [1] = organism: Oryctolagus cuniculus; test: Maximum percentage induction of the secretion of beta-glucosaminidase from cytochalasin beta-treated rabbit peritoneal polymorphonuclear leukocytes (neutrophils)
Oryctolagus cuniculus [2] = organism: Oryctolagus cuniculus; test: Effective dose to induce the secretion of beta-glucosaminidase from cytochalasin beta-treated rabbit peritoneal polymorphonuclear leukocytes (neutrophils); details: read-out: ED50 (the source's name)
Oryctolagus cuniculus [3] = organism: Oryctolagus cuniculus; test: Relative potency with respect to HCO-L-Met-L-Leu-L-Phe-OMe (1) was determined

Structure (SMILES)	EC50 (Oryctolagus cuniculus [2])	Max (Oryctolagus cuniculus [1])	Relative potency (Oryctolagus cuniculus [3])
CC[C@](C)(NC(=O)[C@H](CCSC)NC=O)C(=O)N[C@@H](Cc1ccccc1)C(=O)OC	0.17 nM	32%	0.4
CC[C@@](C)(NC(=O)[C@H](CCSC)NC=O)C(=O)N[C@@H](Cc1ccccc1)C(=O)OC	0.48 nM	42%	0.14
COC(=O)[C@H](Cc1ccccc1)NC(=O)C(C)(C)NC(=O)[C@H](CCSC)NC=O (HELM PEPTIDE1{[O=C[*:2]].M.[Aib].F.[CO[*:1]]}$$$$V2.0)	1.4 nM	39%	0.049
COC(=O)[C@H](Cc1ccccc1)NC(=O)[C@@H](CC(C)C)NC(=O)[C@H](CCSC)NC=O	36 nM	38%	0.0019
CSCC[C@H](NC=O)C(=O)N[C@@H](CC(C)C)C(=O)N[C@@H](Cc1ccccc1)C(=O)O	0.13 nM	37%	0.52

The next compounds have a lower EC50 (Oryctolagus cuniculus [2]) than those just listed; values first:

EC50 (Oryctolagus cuniculus [2])	Structure (SMILES)	Max (Oryctolagus cuniculus [1])	Relative potency (Oryctolagus cuniculus [3])
0.068 nM	COC(=O)[C@H](Cc1ccccc1)NC(=O)[C@H](CC(C)C)NC(=O)[C@H](CCSC)NC=O	42%	–
0.11 nM	COC(=O)[C@H](Cc1ccccc1)NC(=O)[C@](C)(NC(=O)[C@H](CCSC)NC=O)C(C)C	38%	0.62
0.027 nM	COC(=O)[C@H](Cc1ccccc1)NC(=O)[C@@](C)(NC(=O)[C@H](CCSC)NC=O)C(C)C	32%	2.5
0.027 nM	COC(=O)[C@H](Cc1ccccc1)NC(=O)[C@](C)(CC(C)C)NC(=O)[C@H](CCSC)NC=O	42%	2.5
0.052 nM	COC(=O)[C@H](Cc1ccccc1)NC(=O)[C@@](C)(CC(C)C)NC(=O)[C@H](CCSC)NC=O	42%	1.3
